Patent US20240016773A1, “COMPOSITIONS AND METHODS FOR DIAGNOSIS AND TREATMENT OF CONDITIONS RELATED TO AGING” (EPITRACKER, INC., priority 2018, published 2024)

How the values were obtained:
[1] = tested on: BT system: peripheral blood mononuclear cells, B cells (α-IgM, TCR ligands); experiment: BioMAP Diversity PLUS, BT system; format: cell-based, human
Text: (§1) The Diversity PLUS panel allows test agent characterization in an unbiased way across a broad set of systems modeling various human disease states. These systems are designed to model complex human tissue and disease biology of the vasculature, skin, lung, and inflammatory tissues. Quantitative measurements of 148 biomarker activities across this broad panel, along with comparative analysis of biological activities from known bioactive agents, were used to predict and compare the efficacy and function of each selected compound at four concentrations (740 nm and 2.2, 6.7 and 20 μM).
(§2) BioMAP systems are constructed with one or more primary cell types from healthy human donors, with stimuli (such as cytokines or growth factors) added to capture relevant signaling networks that naturally occur in human tissue or pathological conditions. Vascular biology is modeled in both a Th1 (3C system) and a Th2 (4H system) inflammatory environment, as well as in a Th1 inflammatory state specific to arterial smooth muscle cells (CASM3C system). Additional systems recapitulate aspects of the systemic immune response including monocyte-driven Th1 inflammation (LPS system) or T cell stimulation (SAg system), chronic Th1 inflammation driven by macrophage activation (lMphg system) and the T cell-dependent activation of B cells that occurs in germinal centers (BT system). The BE3C system (Th1) and the BF4T system (Th2) represent airway inflammation of the lung, while the MyoF system models myofibroblast-lung tissue remodeling. Lastly, skin biology is addressed in the KF3CT system modeling Th1 cutaneous inflammation and the HDF3CGF system modeling wound healing.
(§3) Each test agent generates a signature BioMAP profile that is created from the changes in protein biomarker readouts within individual system environments. Biomarker readouts (7-17 per system) are selected for therapeutic and biological relevance, are predictive for disease outcomes or specific drug effects and are validated using agents with known mechanism of action (MoA). Each readout is measured quantitatively by immune-based methods that detect protein (e.g., ELISA) or functional assays that measure proliferation and viability. BioMAP readouts are diverse and include cell surface receptors, cytokines, chemokines, matrix molecules and enzymes. In total, the Diversity PLUS panel contains 148 biomarker readouts that capture biological changes that occur within the physiological context of the particular BioMAP system. Specific BioMAP activities have been correlated to in vivo biology, and multiparameter BioMAP profiles have been used to distinguish compounds based on MoA and target selectivity across diverse physiological systems.
(§4) Activated BioMAP systems were incubated with each compound for 24 to 72 hours. Protein-based biomarkers from activated cell systems were measured and compared with non-treated control systems.

[2] = tested on: obese mouse model (C57BL/6J mice fed a high fat diet); experiment: High fat diet obese mouse model, daily oral pentadecanoic acid; format: in vivo
Description: This study examined the impact of daily oral administration of synthetic pentadecanoic acid (C15:0) on total and LDL cholesterol in an obese mouse model. Twenty C57BL/6J mice were fed a high fat diet (HFD) (D12492, 60% kcals fat) for 8 weeks. Study mice were then divided into the following two groups of ten: vehicle controls and pentadecanoic acid—treated (5 mg/kg body weight). The test article was a synthetic powder form stable at room temperature and purchased from Sigma-Aldrich (Products W433400 (≥99% C15:0). The test article was provided daily via gastric gavage for 12 weeks (84 days) while continuing ad libitum access to the HFD. Total cholesterol and low-density lipoprotein (LDL) cholesterol were measured at Day 0 and Day 84. Data from the treated group were compared to the control group using Wilcoxon rank sum analyses. Significance was defined as a P value less than or equal to 0.05.

[3] = tested on: HDF3CGF system: dermal fibroblasts (IFNγ, TNFα, IL-1β, EGF, bFGF, PDGF-BB); experiment: BioMAP Diversity PLUS, HDF3CGF system; format: cell-based, human; settings: HD3CGF (so in the source)
Text: as §1, §2, §3, §4

[4] = tested on: New Zealand white rabbits fed a high fat diet; experiment: High fat diet-fed New Zealand white rabbit model, daily pentadecanoic acid in diet; format: in vivo
Description: This study examined the impact of daily oral administration of synthetic pentadecanoic acid (C15:0) on serum globulins, cholesterol, and liver fibrosis in an animal model fed a high fat diet. Sixteen New Zealand white rabbits were fed a high fat diet (HFD) (4% peanut oil and 0.5% cholesterol) for 2 weeks. Study rabbits were then divided into the following two groups of eight: high fat diet controls, and high fat diet animals treated with pentadecanoic acid (35 mg/kg body weight). The test article was a synthetic powder form stable at room temperature and purchased from Sigma-Aldrich (Products W433400 (≥99% pentadecanoic acid). The test article was provided daily in the diet for 11 weeks (77 days) while continuing ad libitum access to the HFD. Total cholesterol, platelets, and globulins were measured at Days 0 and 77.
On Day 77, liver tissues from HFD controls and pentadecanoic acid-treated animals were collected and scored histologically for fibrosis by a board-certified veterinary pathologist. Liver tissues were processed into paraffin-embedded blocks for H&E and picrosirius red staining for fibrosis (collagen deposition). Whole picrosirius red stained liver slides were scanned using Aperio ScanScope AT2 at 20×. Fibrosis stages were defined as follows: 0=none, 1=persinusoidal or periportal, 2=perisinusoidal and portal/periportal, 3=bridging fibrosis, 4=cirrhosis. Data from the treated group were compared to the control group using Wilcoxon rank sum analyses. Significance was defined as a P value less than or equal to 0.05.

[5] = tested on: SAg system: venular endothelial cells, peripheral blood mononuclear cells (TCR ligands); experiment: BioMAP Diversity PLUS, SAg system; format: cell-based, human
Text: as §1, §2, §3, §4

## CCCCCCCCCCCCCCC(=O)O [Pentadecanoic acid, pentadecanoic acid]
[1]; 2.2 μM
  Significant log10 reduction vs nontreated controls: Secreted interleukin 17A (IL-17A): −0.25 log10
  Significant log10 reduction vs nontreated controls: Secreted interleukin 17F (IL-17F): −0.16 log10
[1]; 6.7 μM
  Significant log10 reduction vs nontreated controls: Secreted immunoglobulin G (IgG): −0.17 log10
[1]; 20.0 μM
  Significant log10 reduction vs nontreated controls: Secreted immunoglobulin G (IgG): −0.55 log10
  Significant log10 reduction vs nontreated controls: Secreted interleukin 6 (IL-6): −0.29 log10
  Significant log10 reduction vs nontreated controls: Secreted interleukin 17A (IL-17A): −0.29 log10
  Significant log10 reduction vs nontreated controls: Secreted interleukin 17F (IL-17F): −0.18 log10
[2]; 5 mg/kg daily gavage, 12 weeks, HFD mice
  Tolerability of test article: tolerated the test article throughout the study
[2]; Index at Day 84, 5 mg/kg dose daily via gastric gavage for 12 weeks, HFD mice, P 0.032 vs HFD control
  Total Cholesterol: 183 + 25 mg/dl
[2]; Index at Day 84, 5 mg/kg dose daily via gastric gavage for 12 weeks, HFD mice, P 0.036 vs HFD control
  LDL Cholesterol: 6.3 ± 3.6 mg/dL
[2]; oral daily for 12 weeks, obese mice on high fat diet
  Percent body weight gain compared to control mice on high fat diet alone: lower percent body weight gain
[2]; treated group, 5 mg/kg daily gavage, 12 weeks
  Early mortalities: no early mortalities
[3]; 6.7 μM
  Significant log10 reduction vs nontreated controls: 72-hour fibroblast proliferation: −0.67 log10
  Significant log10 reduction vs nontreated controls: Collagen I: −0.07 log10
  Significant log10 reduction vs nontreated controls: Plasminogen activation inhibitor 1 (PAI-1): −0.08 log10
[3]; 20.0 μM
  Significant log10 reduction vs nontreated controls: 72-hour fibroblast proliferation: −1.1 log10
  Significant log10 reduction vs nontreated controls: Collagen I: −0.13 log10
  Significant log10 reduction vs nontreated controls: Collagen III: −0.13 log10
  Significant log10 reduction vs nontreated controls: Interferon gamma-induced protein 10 (IP-10)/CXCL10: −0.14 log10
  Significant log10 reduction vs nontreated controls: Interferon-inductible T cell alpha chemoattractant (I-TAC)/CXCL11: −0.17 log10
  Significant log10 reduction vs nontreated controls: Monokine induced by gamma interferon (MIG)/CXCL9: −0.10 log10
  Significant log10 reduction vs nontreated controls: Plasminogen activation inhibitor 1 (PAI-1): −0.13 log10
  Significant log10 reduction vs nontreated controls: Vascular cell adhesion molecule 1 (VCAM-1): −0.28 log10
[4]; 35 mg/kg daily in diet, 11 weeks
  Early mortalities: no early mortalities
[4]; 35 mg/kg daily in diet, 11 weeks, HFD rabbits
  Tolerability of test article: tolerated the test article throughout the study
[4]; 35 mg/kg daily oral for 11 weeks, histology, picrosirius red
  Stage 3 bridging fibrosis in liver (FIG. 1): lack of Stage 3 bridging fibrosis
[4]; Day 77, 35 mg/kg, HFD rabbits
  Platelets compared with HFD control group: lower
[4]; Index at Day 77 (head), 35 mg/kg dose daily in diet 11 weeks, HFD rabbits, P 0.004
  Globulins: 1.3 ± 0.7 G/dl
[4]; Index at Day 77 (head), 35 mg/kg dose daily in diet 11 weeks, HFD rabbits, plasma, P 0.024
  Cholesterol: 2516 ± 746 mg/dL
[4]; Index at Day 77 (head), 35 mg/kg dose, n = 8, stage score 0-4, P 0.016
  Liver Fibrosis Stage: 2.3 ± 0.5
[5]; 6.7 μM
  Significant log10 reduction vs nontreated controls: Monocyte chemoattractant protein 1 (MCP-1): −0.18 log10
[5]; 20.0 μM
  Significant log10 reduction vs nontreated controls: Monocyte chemoattractant protein 1 (MCP-1): −0.15 log10
